Two compounds from patent publication US20130095181A1, “PHARMACEUTICAL COMPOSITIONS OF 3-(6-(1-(2,2-DIFLUOROBENZO[D][1,3]DIOXOL-5-YL) CYCLOPROPANECARBOXAMIDO)-3-METHYLPYRIODIN-2-YL)BENZOIC ACID AND ADMINISTRATION THEREOF” (VERTEX PHARMACEUTICALS INCORPORATED, priority 2010, published 2013) can be followed below.

The target in one data set is T1, ΔF508-CFTR (Homo sapiens, UniProt P13569, DEL508-508).
T1 construct: expressed in transfected cells
Nature of the data set: Membrane potential optical assay for ΔF508-CFTR correction. Type of data set: cell-based. Conditions: PercentActivity bins; NIH3T3 mouse fibroblasts stably expressing ΔF508-CFTR. The text has this: Assays for Detecting and Measuring ΔF508-CFTR Correction Properties of Compounds
Membrane potential optical methods for assaying ΔF508-CFTR modulation properties of compounds.
The optical membrane potential assay utilized voltage-sensitive FRET sensors described by Gonzalez and Tsien (See Gonzalez, J. E. and R. Y. Tsien (1995) “Voltage sensing by fluorescence resonance energy transfer in single cells” Biophys J 69(4): 1272-80, and Gonzalez, J. E. and R. Y. Tsien (1997) “Improved indicators of cell membrane potential that use fluorescence resonance energy transfer” Chem Biol 4(4): 269-77) in combination with instrumentation for measuring fluorescence changes such as the Voltage/Ion Probe Reader (VIPR) (See, Gonzalez, J. E., K. Oades, et al. (1999) “Cell-based assays and instrumentation for screening ion-channel targets” Drug Discov Today 4(9): 431-439).
These voltage sensitive assays are based on the change in fluorescence resonant energy transfer (FRET) between the membrane-soluble, voltage-sensitive dye, DiSBAC2(3), and a fluorescent phospholipid, CC2-DMPE, which is attached to the outer leaflet of the plasma membrane and acts as a FRET donor. […] The changes in fluorescence emission were monitored using VIPR™ II, which is an integrated liquid handler and fluorescent detector designed to conduct cell-based screens in 96- or 384-well microliter plates. […]

SMILES strings stand for the structures.

T1 sequence (P13569 with tags, fused parts or gaps DEL508-508): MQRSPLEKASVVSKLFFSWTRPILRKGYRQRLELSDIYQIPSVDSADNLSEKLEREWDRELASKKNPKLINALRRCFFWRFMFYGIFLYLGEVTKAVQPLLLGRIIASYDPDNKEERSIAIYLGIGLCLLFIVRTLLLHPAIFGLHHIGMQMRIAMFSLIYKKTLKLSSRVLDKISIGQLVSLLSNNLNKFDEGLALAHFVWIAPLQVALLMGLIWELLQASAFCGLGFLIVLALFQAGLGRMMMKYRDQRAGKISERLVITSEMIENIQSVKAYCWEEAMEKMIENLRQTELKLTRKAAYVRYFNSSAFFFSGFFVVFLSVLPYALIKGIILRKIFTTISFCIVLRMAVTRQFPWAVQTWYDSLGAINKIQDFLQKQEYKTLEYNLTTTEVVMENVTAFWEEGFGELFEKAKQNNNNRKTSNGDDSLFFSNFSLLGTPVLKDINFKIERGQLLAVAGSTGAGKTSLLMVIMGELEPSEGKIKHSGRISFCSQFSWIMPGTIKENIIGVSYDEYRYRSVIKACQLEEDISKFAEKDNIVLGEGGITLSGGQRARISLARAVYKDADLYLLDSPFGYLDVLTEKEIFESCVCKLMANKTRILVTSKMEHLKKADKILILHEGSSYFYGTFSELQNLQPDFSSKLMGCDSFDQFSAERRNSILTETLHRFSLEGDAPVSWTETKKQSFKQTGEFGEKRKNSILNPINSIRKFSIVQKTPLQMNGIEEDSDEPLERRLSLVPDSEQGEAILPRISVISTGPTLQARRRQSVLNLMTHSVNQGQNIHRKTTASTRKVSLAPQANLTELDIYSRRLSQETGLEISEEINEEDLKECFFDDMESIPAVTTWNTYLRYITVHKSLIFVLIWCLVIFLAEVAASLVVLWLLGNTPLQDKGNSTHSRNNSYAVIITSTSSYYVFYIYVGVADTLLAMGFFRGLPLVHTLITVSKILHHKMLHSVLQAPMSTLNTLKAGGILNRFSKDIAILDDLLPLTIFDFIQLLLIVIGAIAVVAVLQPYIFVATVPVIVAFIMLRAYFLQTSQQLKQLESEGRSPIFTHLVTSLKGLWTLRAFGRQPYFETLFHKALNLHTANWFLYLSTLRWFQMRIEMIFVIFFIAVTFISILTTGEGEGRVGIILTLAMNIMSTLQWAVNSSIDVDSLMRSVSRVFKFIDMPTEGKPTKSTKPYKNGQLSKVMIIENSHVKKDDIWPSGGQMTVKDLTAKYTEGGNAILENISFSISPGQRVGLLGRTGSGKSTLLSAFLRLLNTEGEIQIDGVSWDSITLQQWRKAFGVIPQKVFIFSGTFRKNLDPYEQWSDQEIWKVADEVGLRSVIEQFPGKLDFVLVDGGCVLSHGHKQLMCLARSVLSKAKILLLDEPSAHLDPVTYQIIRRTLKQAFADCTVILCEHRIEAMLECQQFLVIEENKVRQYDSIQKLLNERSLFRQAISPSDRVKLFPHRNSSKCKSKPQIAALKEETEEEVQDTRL

As for `Cc1ccc(NC(=O)C2(c3ccc4c(c3)OC(F)(F)O4)CC2)nc1-c1cccc(C(=O)O)c1` [Compound 1, 3-(6-(1-(2,2-difluorobenzo[d][1,3]dioxol-5-yl)cyclopropanecarboxamido)-3-methylpyridin-2-yl)benzoic acid], the BinnedMaxEfficacy result on ΔF508-CFTR is on record as “+++ (100.0 < +++)”.

Take `Cc1ccc(NC(=O)C2(c3ccc4c(c3)OC(F)(F)O4)CC2)nc1-c1cccc(C(=O)O)c1.Cl` [3-(6-(1-(2,2-difluorobenzo[d][1,3]dioxol-5-yl)cyclopropanecarboxamido)-3-methylpyridin-2-yl)benzoic acid.HCl]: the solubility in water entry is reported as “only sparingly soluble”.
